Like-named read-outs stand apart in the source and are kept apart here.
Legend:
[1] = lymphoma patients; 30 mg/m^2 Dox; cited from earlier work
[2] = test system: bone-marrow-derived DCs; test: MTS viability assay, DCs (Example 2); format: cell-based, BALB/c mice; conditions: 24 h; 1.125 μg/mL Dox; FIG. 8B
Description: To generate murine bone-marrow-derived DCs, bone marrow cells were flushed from tibias and femurs of BALB/c mice, and mononuclear cells isolated using Ficoll gradient separation (Fico/Lite-LM, Atlanta Biologicals, Flowery Branch, Ga.). Cells were cultured in medium supplemented with 20 ng/mL each GM-CSF and IL4 (PeproTech, Rocky Hill, N.J.) for 7 days. Non-adherent cells were harvested. Cells were >70% DCs as determined by CD11c staining.
(§1) The MTS assay for viability was used to determine the cytotoxic activity of Dox MPs against A20 and DCs (Promega, Madison, Wis.). Briefly, 5×10^3 A20 cells or DCs were incubated with Dox MPs (8 μg/mg) for 24, 48 or 72 h (4 wells per group) at a range of Dox concentrations. Blank MPs were used as negative controls. MTS was added for 4 h at 37° C. Following centrifugation, 90 μl of supernatant was removed. Absorbance was read at 490 nm using a Thermomax Microplate Reader (Molecular Devices, Sunnyvale, Calif.).

[3] = test system: A20 cells; test: MTS viability assay, A20 (Example 1); format: cell-based, murine; conditions: Mus musculus, 4.5 μg/mL Dox, MPs 4:1 loading, read-out: viable A20
Description: The A20 cell line (a BALB/c B cell lymphoma) and the EL4 cell line (a C57BL/6 T cell lymphoma) were purchased from ATCC (Manassas, Va.). Tumor cells were cultured in RPMI-1640 medium (Gibco, Carlsbad, Calif.) supplemented with 10% heat-inactivated FCS (HyClone, Logan, Utah), 100 U/mL penicillin, 100 μg/mL streptomycin, and 50 μM 2-ME (All from Gibco), as complete medium.
To determine the cytotoxic activity of MPs against A20 and EL4, the 3-(4,5 dimethylthiazol-2-yl)-5-(3-carboxymethoxyphenyl-2-(4-sulfophenyl)-2H-tetrazolium (MTS) assay for viability was conducted using CellTiter 96® AQueous Non-Radioactive Cell Proliferation Assay (Promega, Madison, Wis.). Five thousand A20 and EL4 cells were separately incubated with soluble Dox or Dox/CpG MPs (4:1 loading) in 96-well plates for 24, 48, and 72 h (four wells per group) at a final Dox concentration of 4.5 μg/mL. Media or blank MPs at equivalent weights were used as negative controls. The MTS/PMS reagent was then added for 4 h at 37° C. […] Absorbance was read at 490 nm using Thermomax Microplate Reader (Molecular Devices, Sunnyvale, Calif.). […] Viability was assessed as before.
Percent survival was expressed as the ratio of absorbance of treated cells relative to that of untreated cells in media group (after subtracting the absorbance of the blank from each) multiplied by 100. […]

[4] = test system: A20 cells phagocytosed by DCs; test: Phagocytosis assay of A20 by DCs; format: cell-based, murine; conditions: A20 treated 48 h, co-incubated with DCs 1:1 for 2 h
Description: A20 phagocytosis was quantified using A20 cells labeled with CellTrace Violet (Invitrogen, Carlsbad, Calif.). Labeled A20 were left untreated or treated with Dox MPs for 48 h (3 wells per group) at various concentrations. Controls included soluble Dox (at the same concentrations) and blank MPs (at equivalent weights). Treated A20 were washed and co-incubated with DCs at a 1:1 ratio for 2 h, stained with anti-CD11c-APC-Cy7 (BD), and analyzed by flow cytometry. The percentage of double-positive cells (CD11c and CellTrace Violet) was determined.

[5] = test system: A20 cells; test: MTS viability assay, A20 (Example 2); format: cell-based, murine
Description: as §1

COc1cccc2c1C(=O)c1c(O)c3c(c(O)c1C2=O)C[C@@](O)(C(=O)CO)C[C@@H]3O[C@H]1C[C@H](N)[C@H](O)[C@H](C)O1 [soluble Dox, Doxorubicin]
peak plasma concentration [1]: 278 ng/mL
survival of DCs [2]: 19%
viability at 4.5 µg/mL ([3]; A20, 24 h, day 1): 26%
viability at 4.5 µg/mL ([3]; A20, 48 h, day 2): 4%
phagocytosis of A20 tumor cells by DCs [4]: enhanced phagocytosis of A20 cells
survival of A20 ([5]; 24 h, 1.125 μg/mL Dox, FIG. 8B comparison with DCs): 26%
viability at 0.5625 µg/mL ([5]; Mus musculus, A20, Day 1 (24 h), 0.5625 μg/mL Dox, FIG. 8A): 87%
viability at 1.125 µg/mL ([5]; Mus musculus, A20, Day 1 (24 h), 1.125 μg/mL Dox, FIG. 8A): 46%
viability at 1.125 µg/mL ([5]; Mus musculus, A20, Day 2 (48 h), 1.125 μg/mL Dox): 5%

Source: patent US10314854B2, “Methods for treating tumors in situ including intratumor injection of cytotoxic particles and immune checkpoint blockade therapy” (University of Iowa Research Foundation, priority 2015, dated 2019)
